Experimental data taken from article PMC8804135 (Neurotherapeutics, 2021).
Numbered stars: 1 amine (or outer) side, 2 acyl side, 3 side chain; on linkers, the order of the positions; unused ones are H or OH. Bridge positions count the residues as written; N and C are the ends. Square brackets hold non-standard residues; d marks the D form. Peptide text beside a SMILES is read from it. dAbu(3S-yl) = C[C@@H]([C@@H](N[*:1])C(=O)[*:2])[*:3]; pGlu = O=C1CC[C@@H](C(=O)O)N1

Columns and labels:
GAL1R [1] = molecular target: T1, GAL1R (Homo sapiens, UniProt P47211); assay: PathHunter eXpress β-arrestin recruitment assay, GAL1R; type: cell-based; design: expressed in transfected cells; conditions: Table 3; CHO-K1 cells co-expressing GAL1R and β-arrestin 2; 10 µM to 5 nM; (average) ratio, (n) in cell = number of assays; NA = ratio above 1000
T1 sequence (P47211 1-349): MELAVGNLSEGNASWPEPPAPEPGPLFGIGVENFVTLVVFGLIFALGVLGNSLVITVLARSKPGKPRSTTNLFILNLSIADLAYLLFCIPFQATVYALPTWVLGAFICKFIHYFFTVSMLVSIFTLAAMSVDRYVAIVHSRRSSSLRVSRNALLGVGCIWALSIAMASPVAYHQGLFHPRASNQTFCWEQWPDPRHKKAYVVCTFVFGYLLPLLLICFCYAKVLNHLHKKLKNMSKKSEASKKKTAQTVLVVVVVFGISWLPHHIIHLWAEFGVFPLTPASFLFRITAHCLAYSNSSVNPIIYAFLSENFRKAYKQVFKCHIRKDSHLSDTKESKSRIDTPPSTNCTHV
Experimental: (§1) To evaluate the ability of lanthipeptides to recruit ß-arrestins via GAL1R or via GAL2R, we used the PathHunter® eXpress GAL1R, CHO-K1, β-arrestin GPCR Assay and the PathHunter® eXpress GAL2R, CHO-K1, β-arrestin, GPCR Assay from Eurofins-DiscoverX. The assays were performed according to the manufacturer’s instructions. Briefly, for one assay, CHO-K1 cells co-expressing GAL1R or GAL2R and β-arrestin (isoform 2) were diluted in AssayComplete™ Cell Plating Reagent, and 100 µl was seeded into each well of a 96-well plate. The plate was incubated at 37 °C, 5% CO2 in a humidified incubator. A serial 3 × dilution of the lanthipeptides in water was made (10 µM to 5 nM). After 48 h of incubation, 10 µl of the serial dilutions was applied to the cells in duplicate. The agonists were incubated for 90 min at 37 °C. Next, 55 µL of Working Detection Solution was added, and after 1 h of incubation at room temperature in the dark, the chemiluminescent signal was read with a Synergy HT Biotek reader.

GAL1R [2] = molecular target: T1, GAL1R; assay: SRE luciferase reporter assay, GAL1R-transfected HEK293 Gqi cells; conditions: transiently transfected HEK293 Gqi cells; up to 10 µM, 5 h
[3] = In vitro stability in brain plasma; type: in vitro ADME, rat; conditions: Sprague-Dawley, rat, other tissue homogenate, pH 7.4
Experimental: The method to study the stability of peptides in brain plasma is described in the Supplementary material. […]
receptor-2-selective agonist reduces acute food intake
Anneke Kuipers1, Márta Balasko2, Erika Pétervári2, Andreas Koller3,4, Susanne M.
Brunner3,4, Gert N. Moll1,5, Barbara Kofler 3*
In vitro stability in brain plasma
Sprague dawley rat brain lyophilized powder was purchased from MyBioSource (San Diego, USA). One gram brain powder was reconstituted in 10 ml PBS, 0.5 ml 2 M Tris (pH=8), 100 µl Triton X -100 and 10 mg SDS. The solution was centrifuged and the supernatant was collected, aliquoted and stored at -20 °C until usage. To assess the stability, 10 µM GAL-(1-15) and 10 µM M89b were incubated in 1% brain plasma buffered with 200 mM phosphate buffer (pH 7.4) at 37°C for up to 6 hours. At various time points […]
20 µl 100% ACN. Samples were centrifuged and kept on ice. Full-length peptides were quantified by using a C12 column (C12 RP 250 x 4.60 mm column, Phenomenex) on a JASCO HPLC system and applying a gradient of 20 -90% ACN in 0.1% TFA for 30 minutes.
Peptides were detected at 280 nm. A280 areas in chromatograms of the corresponding GAL-(1-15) and M89b full-length peptide peaks were used to determine the amount of peptide left after incubation with cerebrospinal fluid at the different time points. Peptide peaks were determined using JASCO-Borwin Chromatography software (v1.50).

GAL2R = molecular target: T2, GAL2R (Homo sapiens, UniProt O43603); assay: PathHunter eXpress β-arrestin recruitment assay, GAL2R; type: cell-based; design: expressed in transfected cells; conditions: Table 3; CHO-K1 cells co-expressing GAL2R and β-arrestin 2; 10 µM to 5 nM; (average) ratio, (n) in cell = number of assays; NA = ratio above 1000
T2 sequence (O43603 1-387): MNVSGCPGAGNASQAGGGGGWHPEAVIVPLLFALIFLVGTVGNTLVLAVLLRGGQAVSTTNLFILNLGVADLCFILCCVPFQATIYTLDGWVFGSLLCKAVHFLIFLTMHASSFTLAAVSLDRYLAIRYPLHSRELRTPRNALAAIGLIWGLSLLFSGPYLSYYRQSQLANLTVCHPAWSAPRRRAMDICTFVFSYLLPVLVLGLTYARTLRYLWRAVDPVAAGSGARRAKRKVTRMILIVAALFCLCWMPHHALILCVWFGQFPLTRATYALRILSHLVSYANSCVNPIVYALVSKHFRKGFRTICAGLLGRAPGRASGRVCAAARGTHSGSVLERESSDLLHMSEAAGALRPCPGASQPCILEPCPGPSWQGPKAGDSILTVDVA
Experimental: as §1

Stimulation of GAL1R, luciferase reporter (GAL1R [2]): inability to stimulate
remaining at 6 h, 10 µM [3]: ~85%
EC50 ratios to Gal-(1-15), GAL2R ß-Arrestin (GAL2R): 1.7 (3)
Compound: CC(C)C[C@H](NC(=O)[C@H](CC(C)C)NC(=O)[C@H](Cc1ccc(O)cc1)NC(=O)CNC(=O)[C@H](C)NC(=O)[C@H](C)NC(=O)[C@H](CC(N)=O)NC(=O)[C@H](CC(C)C)NC(=O)[C@H](CC(N)=O)NC(=O)[C@H](Cc1c[nH]c2ccccc12)NC(=O)[C@@H]1CCC(=O)N1)C(=O)N[C@@H](C)C(=O)N[C@H]1C(=O)N[C@@H](Cc2c[nH]cn2)C(=O)N[C@@H](C)C(=O)N[C@H](C(=O)NCC(=O)O)CS[C@H]1C [Variant M89b, G1pE-T3N-S6A-G12A-methyllanthionine[13–16]-galanin-(1–17)] ([pGlu]WNLNAAGYLLA[dAbu(3S-yl)]HACG-OH; thioether 13-16; C-terminus assumed)
EC50 ratios to Gal-(1-15), GAL1R ß-Arrestin (GAL1R [1]): NA (3) (NA is not active; ratios above 1000 were considered to be not active)
